Measured values: PMC6151956 (Slas Discovery, 2018)
Several values for one entry are separate records, joined by “and”; a condition that tells them apart may be missing. Equal entries are not always repeated. Where two headings read alike, the source gives them in different places.

Experiments:
[1] = molecular target: T1, BTK in whole blood (Homo sapiens, UniProt Q06187); assay: Stability of tirabrutinib-treated whole blood; assay type: cell-based
[2] = test system: interleukin-2-inducible T-cell kinase (ITK); conditions: cited from earlier work
[3] = test system: TEC; conditions: cited from earlier work
[4] = test system: TEC; conditions: cited from earlier work; remark: listed apart in the source
[5] = test system: epidermal growth factor kinase (EGFR); conditions: cited from earlier work
[6] = molecular target: T1, BTK in whole blood; assay: TR-FRET BTK occupancy assay in whole blood from healthy volunteers; assay type: cell-based
[7] = molecular target: BTK in BMMCs and PBMCs from patients with CLL (Homo sapiens, UniProt Q06187); assay type: cell-based; conditions: 110 nM tirabrutinib, 2 h ex vivo
BTK in BMMCs and PBMCs from patients with CLL, sequence (Q06187 whole entry): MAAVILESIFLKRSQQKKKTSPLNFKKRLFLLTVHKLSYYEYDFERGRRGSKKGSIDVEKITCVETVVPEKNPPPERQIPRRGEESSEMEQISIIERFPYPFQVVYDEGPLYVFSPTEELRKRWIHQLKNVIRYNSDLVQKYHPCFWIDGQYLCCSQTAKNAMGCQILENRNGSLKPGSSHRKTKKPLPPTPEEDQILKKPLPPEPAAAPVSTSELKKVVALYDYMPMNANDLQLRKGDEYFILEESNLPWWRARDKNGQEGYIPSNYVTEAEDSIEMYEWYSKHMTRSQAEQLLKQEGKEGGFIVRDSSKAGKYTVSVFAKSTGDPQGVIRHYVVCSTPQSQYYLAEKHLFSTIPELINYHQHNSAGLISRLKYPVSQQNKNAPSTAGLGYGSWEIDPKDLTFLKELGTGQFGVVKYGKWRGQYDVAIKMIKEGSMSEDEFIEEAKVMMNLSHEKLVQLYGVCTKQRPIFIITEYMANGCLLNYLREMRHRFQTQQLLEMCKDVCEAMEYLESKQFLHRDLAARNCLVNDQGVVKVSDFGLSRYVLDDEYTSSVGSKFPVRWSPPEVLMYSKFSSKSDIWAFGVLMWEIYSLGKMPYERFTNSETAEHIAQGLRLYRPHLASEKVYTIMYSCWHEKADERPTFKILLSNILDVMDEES

[8] = molecular target: BTK in Ramos B cells (Homo sapiens, UniProt Q06187); assay: TR-FRET BTK occupancy assay in Ramos B cells; assay type: cell-based
BTK in Ramos B cells, sequence (Q06187 whole entry): as above

[9] = phase 1 clinical study, cited from earlier work
[10] = molecular target: Recombinant full-length human BTK (rBTK) (Homo sapiens, UniProt Q06187); assay: TR-FRET BTK occupancy assay on recombinant BTK; assay type: binding
Recombinant full-length human BTK (rBTK), sequence (Q06187 whole entry): as above

[11] = molecular target: BTK in human PBMCs (Homo sapiens, UniProt Q06187); assay: TR-FRET BTK occupancy assay in purified human PBMCs from healthy volunteers; assay type: cell-based
BTK in human PBMCs, sequence (Q06187 whole entry): as above

T1 sequence (Q06187 whole entry): as above

## CC#CC(=O)N1CCC[C@H]1c1nc(-c2ccc(C(=O)Nc3ccccn3)cc2)c2c(N)nccn12 [acalabrutinib, reference compound]
[1]
  BTK occupancy on storage at room temperature: effect of room temperature storage was also observed

## C=CC(=O)N1CCC[C@@H](n2nc(-c3ccc(Oc4ccccc4)cc3)c3c(N)ncnc32)C1 [ibrutinib]
[2]
  BTK selectivity versus ITK: 21 fold
[3]
  Selectivity for BTK over TEC: 5.6 fold
[4]
  BTK selectivity versus TEC: 156 fold
[5]
  BTK selectivity versus EGFR: 11 fold

## CC#CC(=O)N1CC[C@@H](n2c(=O)n(-c3ccc(Oc4ccccc4)cc3)c3c(N)ncnc32)C1 [tirabrutinib, Tirabrutinib]
[6]
  concentration at which full BTK occupancy was achieved: 500 to 1000 nM
[7]
  BTK occupancy: ~100% and > 80%
[8]
  concentration at which full BTK occupancy was achieved: 500 to 1000 nM
[1]; whole blood pretreated 2 h, then stored at 4 °C for up to 48 h
  BTK occupancy on storage at 4 °C: maintained at the same level for up to 48 h
[1]; whole blood pretreated 2 h, then stored at room temperature (24 h and more)
  BTK occupancy on storage at room temperature: significantly higher target occupancy
[9]; CLL
  response rate in CLL: 96%
[9]; MCL
  response rate in MCL: 92%
[9]; nongerminal center DLBCL
  response in nongerminal center DLBCL: 35%
[10]
  concentration at which full BTK occupancy was achieved: 100 nM
[11]
  concentration at which full BTK occupancy was achieved: 500 to 1000 nM
